The target of test [1] is T1, NLRP3 (Homo sapiens, UniProt Q96P20). Description: THP-1 cells pyroptosis assay (LPS + nigericin, resazurin readout). The note with it: NLRP3 inhibitory activity, 1.0 μg/ml LPS, 5 μM nigericin. The class given is cell-based. Set-up: Seed THP-1 cells (25,000 cells/well) containing 1.0 μg/ml LPS in 40 μl of RPMI medium; host or cells: THP-1 cells. Here is the method: THP-1 cells (ATCC #TIB-202) were grown in RPMI containing L-glutamine (Gibco #11835) supplemented with 1 mM sodium pyruvate (Sigma #S8636) and penicillin (100 units/ml)/streptomycin (0.1 mg/ml) (Sigma #P4333) in 10% Fetal Bovine Serum (FBS) (Sigma #F0804). The cells were routinely passaged and grown to confluency (˜10^6 cells/ml). On the day of the experiment, THP-1 cells were harvested and resuspended into RPMI medium (without FBS). The cells were then counted and viability (>90%) checked by Trypan blue (Sigma #T8154). Appropriate dilutions were made to give a concentration of 625,000 cells/ml. To this diluted cell solution was added LPS (Sigma #L4524) to give a […] Final Assay Concentration (FAC). 40 μl of the final preparation was aliquoted into each well of a 96-well plate. The plate thus prepared was used for compound screening.
The following method step-by-step assay was followed for compound screening. • 1. Seed THP-1 cells (25,000 cells/well) containing 1.0 μg/ml LPS in 40 μl of RPMI medium (without FBS) in 96-well, black walled, clear bottom cell culture plates coated with poly-D-lysine (VWR #734-0317) • 2. Add 5 μl compound (8 points half-log dilution, with 10 μM top dose) or vehicle (DMSO 0.1% FAC) to the appropriate wells • 3. Incubate for 3 hrs at 37° C. in 5% CO2 • 4. Add 5 μl nigericin (Sigma #N7143) (FAC 5 μM) to all wells • 5. Incubate for 1 hr at 37° C. and 5% CO2 • 6. At the end of the incubation period, spin plates at 300×g for 3 mins and remove supernatant • 7. Then add 50 μl of resazurin (Sigma #R7017) (FAC 100 μM resazurin in RPMI medium without FBS) and incubate plates for a further 1-2 hrs at 37° C. and 5% CO2 • 8. Plates were read in an Envision reader at Ex 560 nm and Em 590 nm • 9. IC50 data is fitted to a non-linear regression equation (log inhibitor vs response-variable slope 4-parameters)

For test [2], the target named is T1, NLRP3. Briefly: Human whole blood IL1β release assay (LPS + nigericin, AlphaLisa IL-1β). More on the design: Human whole blood in Li-heparin tubes was obtained from healthy donors from a volunteer donor panel; from tissue; host or cells: human whole blood from healthy donors. It is filed as cell-based. The note with it: NLRP3 inhibitory activity, 1 μg/ml LPS, 10 μM nigericin, IL-1β release, read-out: HWB IC50. As for the experimental part: For systemic delivery, the ability to inhibit NLRP3 when the compounds are present within the bloodstream is of great importance. For this reason, the NLRP3 inhibitory activity of a number of compounds in human whole blood was investigated in accordance with the following protocol.
Human whole blood in Li-heparin tubes was obtained from healthy donors from a volunteer donor panel. • 1. Plate out 80 μl of whole blood containing 1 μg/ml of LPS in 96-well, clear bottom cell culture plate (Corning #3585) • 2. Add 10 μl compound (8 points half-log dilution with 10 μM top dose) or vehicle (DMSO 0.1% FAC) to the appropriate wells • 3. Incubate for 3 hrs at 37° C., 5% CO2 • 4. Add 10 μl Nigericin (Sigma #N7143) (10 μM FAC) to all wells • 5. Incubate for 1 hr at 37° C., 5% CO2 • 6. At the end of the incubation period, spin plates at 300×g for 5 mins to pellet cells and remove 20 μl of supernatant and add to 96-well v-bottom plates for IL-1β analysis (note: these plates containing the supernatants can be stored at −80° C. to be analysed at a later date) • 7. IL-1β was measured according to the manufacturer protocol (Perkin Elmer-AlphaLisa IL-1β Kit AL220F-5000) • 8. IC50 data is fitted to a non-linear regression equation (log inhibitor vs response-variable slope 4-parameters)
(In general: In Alpha technology, singlet oxygen from a donor bead excites a nearby acceptor bead.)

SMILES strings stand for the structures. Where a name gives a salt, the structure may show the parent alone. Where only a bound is given, the exact number is not on record here.

T1 sequence (Q96P20 whole entry): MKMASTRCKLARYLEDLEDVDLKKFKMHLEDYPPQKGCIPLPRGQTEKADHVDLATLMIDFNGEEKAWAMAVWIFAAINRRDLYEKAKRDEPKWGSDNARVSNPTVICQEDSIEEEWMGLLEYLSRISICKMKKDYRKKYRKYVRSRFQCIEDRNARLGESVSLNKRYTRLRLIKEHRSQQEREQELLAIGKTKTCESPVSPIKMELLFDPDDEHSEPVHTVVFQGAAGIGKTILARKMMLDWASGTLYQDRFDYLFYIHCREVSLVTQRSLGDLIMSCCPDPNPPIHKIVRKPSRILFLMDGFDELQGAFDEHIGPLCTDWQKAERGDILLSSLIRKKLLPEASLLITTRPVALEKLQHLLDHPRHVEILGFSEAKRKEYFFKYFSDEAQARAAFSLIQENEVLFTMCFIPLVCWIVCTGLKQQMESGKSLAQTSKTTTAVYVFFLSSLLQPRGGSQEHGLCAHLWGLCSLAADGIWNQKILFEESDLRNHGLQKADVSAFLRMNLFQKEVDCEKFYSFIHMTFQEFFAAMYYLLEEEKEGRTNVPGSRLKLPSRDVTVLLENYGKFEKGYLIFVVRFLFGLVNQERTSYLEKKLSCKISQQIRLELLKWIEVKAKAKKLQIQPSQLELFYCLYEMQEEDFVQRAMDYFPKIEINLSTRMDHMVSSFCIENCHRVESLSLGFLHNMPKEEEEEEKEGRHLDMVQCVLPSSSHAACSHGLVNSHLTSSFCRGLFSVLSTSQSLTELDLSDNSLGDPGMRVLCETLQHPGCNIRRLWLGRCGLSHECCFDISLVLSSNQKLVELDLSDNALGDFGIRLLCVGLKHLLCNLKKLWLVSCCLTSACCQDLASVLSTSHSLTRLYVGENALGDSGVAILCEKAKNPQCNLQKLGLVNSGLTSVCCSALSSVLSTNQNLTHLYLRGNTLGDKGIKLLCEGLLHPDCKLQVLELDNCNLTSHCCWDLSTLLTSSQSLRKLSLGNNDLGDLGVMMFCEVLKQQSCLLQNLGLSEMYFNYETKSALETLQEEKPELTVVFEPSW

Take `CC(c1cc(S(=O)(=O)NC(=O)Nc2c3c(cc4c2CCC4)CCC3)nn1C)N1CCC1` (single isomer, unassigned; enantiomer 1) [Example 26, 5-(1-(Azetidin-1-yl)ethyl)-N-((1,2,3,5,6,7-hexahydro-s-indacen-4-yl)carbamoyl)-1-methyl-1H-pyrazole-3-sulfonamide, Sodium Salt (Enantiomer 1)]: the IC50 at NLRP3 [1] is 40 to 160 nM; on NLRP3 [2], under 400 nM.

Consider `CCC(c1cc(S(=O)(=O)NC(=O)Nc2c3c(cc4c2CCC4)CCC3)nn1C)N(C)C` (single isomer, unassigned; enantiomer 1) [Example 71, 5-(1-(Dimethylamino)propyl)-N-((1,2,3,5,6,7-hexahydro-s-indacen-4-yl)carbamoyl)-1-methyl-1H-pyrazole-3-sulfonamide, Enantiomer 1], for which the IC50 is under 40 nM on NLRP3 [1] and under 400 nM on NLRP3 [2].

Regarding `CC(c1cc(S(=O)(=O)NC(=O)Nc2c3c(cc4c2CCC4)CCC3)nn1C)N(C)C` (single isomer, unassigned; enantiomer 2) [Example 70, 5-(1-(Dimethylamino)ethyl)-N-((1,2,3,5,6,7-hexahydro-s-indacen-4-yl)carbamoyl)-1-methyl-1H-pyrazole-3-sulfonamide, Enantiomer 2], the figures for the IC50 on NLRP3 [1] and at NLRP3 [2] were under 40 nM and under 400 nM, respectively.

In the case of `CN1CCn2nc(S(=O)(=O)NC(=O)Nc3c4c(cc5c3CCC5)CCC4)cc2C1` [Example 5, N-((1,2,3,5,6,7-Hexahydro-s-indacen-4-yl)carbamoyl)-5-methyl-4,5,6,7-tetrahydropyrazolo[1,5-a]pyrazine-2-sulfonamide], the IC50 at NLRP3 [1] lay within 160 to 640 nM; at NLRP3 [2] it was 1600 to 3200 nM.

Consider `CC(C)c1cc(S(=O)(=O)NC(=O)Nc2c3c(cc4c2CCC4)CCC3)nn1CCN(C)C` [Example 6, 1-(2-(Dimethylamino)ethyl)-N-((1,2,3,5,6,7-hexahydro-s-indacen-4-yl)carbamoyl)-5-isopropyl-1H-pyrazole-3-sulfonamide], for which the IC50 on NLRP3 [1] lay in the range of 160 to 640 nM; on NLRP3 [2] it was 800 to 1600 nM.

Take `CCn1nc(S(=O)(=O)NC(=O)Nc2c(-c3ccnc(OC)c3)ccc3c2CCC3)cc1CN(C)C` [Example 17, 5-((Dimethylamino)methyl)-1-ethyl-N-((5-(2-methoxypyridin-4-yl)-2,3-dihydro-1H-inden-4-yl)carbamoyl)-1H-pyrazole-3-sulfonamide]: the IC50 on NLRP3 [1] was under 40 nM; at NLRP3 [2], under 400 nM.

For the compound `CCn1nc(S(=O)(=O)NC(=O)Nc2c(-c3cccnc3)cc(F)c3c2CCC3)cc1CN(C)C` [Example 20, 5-((Dimethylamino)methyl)-1-ethyl-N-((7-fluoro-5-(pyridin-3-yl)-2,3-dihydro-1H-inden-4-yl)carbamoyl)-1H-pyrazole-3-sulfonamide], the results for the IC50 on NLRP3 [1] and on NLRP3 [2] were under 40 nM and under 400 nM, respectively.

As to `CCn1nc(S(=O)(=O)NC(=O)Nc2c(-c3ccnc(OC)c3)cc(F)c3c2CCC3)cc1CN(C)C` [Example 21, 5-((Dimethylamino)methyl)-1-ethyl-N-((7-fluoro-5-(2-methoxypyridin-4-yl)-2,3-dihydro-1H-inden-4-yl)carbamoyl)-1H-pyrazole-3-sulfonamide], the figures for the IC50 on NLRP3 [1] and on NLRP3 [2] were under 40 nM and under 400 nM, respectively.

`CC(c1cc(S(=O)(=O)NC(=O)Nc2c3c(cc4c2CCC4)CCC3)nn1C1CC1)N(C)C` (stereo not drawn) [Example 22, 1-Cyclopropyl-5-(1-(dimethylamino)ethyl)-N-((1,2,3,5,6,7-hexahydro-s-indacen-4-yl)carbamoyl)-1H-pyrazole-3-sulfonamide]: the half-inhibitory concentration (IC50) at NLRP3 [1] is under 40 nM; on NLRP3 [2] it was 400 to 800 nM.

As to `CCC(c1cc(S(=O)(=O)NC(=O)Nc2c3c(cc4c2CCC4)CCC3)nn1C1CC1)N1CCC1` (stereo not drawn) [Example 23, 5-(1-(Azetidin-1-yl)propyl)-1-cyclopropyl-N-((1,2,3,5,6,7-hexahydro-s-indacen-4-yl)carbamoyl)-1H-pyrazole-3-sulfonamide], the half-inhibitory concentration (IC50) on NLRP3 [1] was under 40 nM; on NLRP3 [2], under 400 nM.

On to `CC1CN(C(C)c2cc(S(=O)(=O)NC(=O)Nc3c4c(cc5c3CCC5)CCC4)nn2C)C1` (stereo not drawn) [Example 29, N-((1,2,3,5,6,7-Hexahydro-s-indacen-4-yl)carbamoyl)-1-methyl-5-(1-(3-methylazetidin-1-yl)ethyl)-1H-pyrazole-3-sulfonamide], for which the figures for the IC50 at NLRP3 [1] and at NLRP3 [2] were 40 to 160 nM and 400 to 800 nM, respectively.

Take `CN(C)Cc1cc(S(=O)(=O)NC(=O)Nc2c3c(cc4c2CCC4)CCC3)nn1CC(C)(C)C` [Example 31, 5-((Dimethylamino)methyl)-N-((1,2,3,5,6,7-hexahydro-s-indacen-4-yl)carbamoyl)-1-neopentyl-1H-pyrazole-3-sulfonamide]: the IC50 at NLRP3 [1] lay within 40 to 160 nM; at NLRP3 [2], 400 to 800 nM.

For the compound `CC(C)n1nc(S(=O)(=O)NC(=O)Nc2c3c(cc4c2CCC4)CCC3)cc1C1(N(C)C)CC1` [Example 32, 5-(1-(Dimethylamino)cyclopropyl)-N-((1,2,3,5,6,7-hexahydro-s-indacen-4-yl)carbamoyl)-1-isopropyl-1H-pyrazole-3-sulfonamide], the IC50 at NLRP3 [1] lay within 40 to 160 nM; at NLRP3 [2] it was 400 to 800 nM.

With `CN(Cc1cc(S(=O)(=O)NC(=O)Nc2c3c(cc4c2CCC4)CCC3)nn1C)CC(F)(F)F` [Example 97, N-((1,2,3,5,6,7-Hexahydro-s-indacen-4-yl)carbamoyl)-1-methyl-5-((methyl(2,2,2-trifluoroethyl)amino)methyl)-1H-pyrazole-3-sulfonamide, Sodium Salt], the IC50 on NLRP3 [1] was in the range of 160 to 640 nM.

For the compound `COCCN(C)Cc1cc(S(=O)(=O)NC(=O)Nc2c(C(C)C)cc(F)cc2C(C)C)nn1C` [Example 118, N-((4-Fluoro-2,6-diisopropylphenyl)carbamoyl)-5-(((2-methoxyethyl)(methyl)amino)methyl)-1-methyl-1H-pyrazole-3-sulfonamide, Sodium Salt], at NLRP3 [1], the IC50 fell in the range of 640 to 2560 nM.

For `CC(C)c1cc(Cl)cc(C(C)C)c1NC(=O)NS(=O)(=O)c1cc(CN2CCOCC2)n(C)n1` [Example 120, N-((4-Chloro-2,6-diisopropylphenyl)carbamoyl)-1-methyl-5-(morpholinomethyl)-1H-pyrazole-3-sulfonamide, Sodium Salt], the IC50 on NLRP3 [1] lay within 640 to 2560 nM.

Consider `Cn1nc(S(=O)(=O)NC(=O)Nc2c3c(cc4c2CCC4)CCC3)cc1CN1CCOCC1` [Example 121, N-((1,2,3,5,6,7-Hexahydro-s-indacen-4-yl)carbamoyl)-1-methyl-5-(morpholinomethyl)-1H-pyrazole-3-sulfonamide], for which the IC50 on NLRP3 [1] fell in the range of 640 to 2560 nM.

Consider `CC(C)c1cc(Cl)cc(C(C)C)c1NC(=O)NS(=O)(=O)c1cc(C(=O)N(C)CC#N)n(C)n1` [Example 130, 3-(N-((4-Chloro-2,6-diisopropylphenyl)carbamoyl)sulfamoyl)-N-(cyanomethyl)-N,1-dimethyl-1H-pyrazole-5-carboxamide], for which the IC50 on NLRP3 [1] lay within 640 to 2560 nM.

With `CN(C)Cc1nc(S(=O)(=O)NC(=O)Nc2c3c(cc4c2CCC4)CCC3)cn1C` [Example 167, 2-((Dimethylamino)methyl)-N-((1,2,3,5,6,7-hexahydro-s-indacen-4-yl)carbamoyl)-1-methyl-1H-imidazole-4-sulfonamide], the IC50 at NLRP3 [1] is 2560 to 10000 nM.

In the case of `CCn1nc(S(=O)(=O)NC(=O)Nc2c(-c3cccc(OC)c3)ccc3c2CCC3)cc1CN(C)C` [Example 182], the IC50 at NLRP3 [1] is 640 to 2560 nM.

Usually IC50 stands for the midpoint of a concentration-inhibition curve.

For the origin of these results see patent publication US11542255B2, “Sulfonylureas and sulfonylthioureas as NLRP3 inhibitors” (Inflazome Limited, priority 2017, dated 2023).
